Results reported in ChEMBL document CHEMBL1201862, “PubChem BioAssay data set” (2004).
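Dose response: 5 concentrations. Exposure: 48 h. Format: 96-well plates. Endpoint: linear interpolation; highest concentration if not reached. Abbreviation: GI50, concentration required for 50% inhibition of growth.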 Activity calls are given as the source filed them. No stated cut-off is given here; in the data, active = GI50 up to about 1.1 µM and inactive = higher.

Key:
Test in all cases: NCI tumour cell line growth inhibition, 48 h
786-0 = tested on: 786-0
A498 = tested on: A498
A549 = tested on: A549
ACHN = tested on: ACHN
CAKI-1 = tested on: CAKI-1
CCRF-CEM = tested on: CCRF-CEM
COLO 205 = tested on: COLO 205
DLD-1 = tested on: DLD-1
DMS-114 = tested on: DMS-114
DMS-273 = tested on: DMS-273
EKVX = tested on: EKVX
HCC 2998 = tested on: HCC 2998
HCT-15 = tested on: HCT-15
HL-60 = tested on: HL-60
HOP-62 = tested on: HOP-62
HOP-92 = tested on: HOP-92
HT-29 = tested on: HT-29
IGROV-1 = tested on: IGROV-1
K562 = tested on: K562
KM-20L2 = tested on: KM-20L2
KM12 = tested on: KM12
LOX IMVI = tested on: LOX IMVI
LXFL 529 = tested on: LXFL 529
M14 = tested on: M14
M19-MEL = tested on: M19-MEL
MOLT-4 = tested on: MOLT-4
Malme-3M = tested on: Malme-3M
NCI-H226 = tested on: NCI-H226
NCI-H23 = tested on: NCI-H23
NCI-H460 = tested on: NCI-H460
NCI-H522 = tested on: NCI-H522
OVCAR-3 = tested on: OVCAR-3
OVCAR-4 = tested on: OVCAR-4
OVCAR-5 = tested on: OVCAR-5
OVCAR-8 = tested on: OVCAR-8
RPMI-8226 = tested on: RPMI-8226
RXF 393 = tested on: RXF 393
SF-268 = tested on: SF-268
SF-295 = tested on: SF-295
SF-539 = tested on: SF-539
SK-MEL-28 = tested on: SK-MEL-28
SK-MEL-2 = tested on: SK-MEL-2
SK-OV-3 = tested on: SK-OV-3
SN12C = tested on: SN12C
SNB-19 = tested on: SNB-19
SNB-75 = tested on: SNB-75
SNB-78 = tested on: SNB-78
SW-620 = tested on: SW-620
TK-10 = tested on: TK-10
UACC-257 = tested on: UACC-257
UACC-62 = tested on: UACC-62
UO-31 = tested on: UO-31
XF498 = tested on: XF498
HCT-116 = tested on: HCT-116
SK-MEL-5 = tested on: SK-MEL-5
SR = tested on: SR
U-251 = tested on: U-251

Cc1cc(O)nc(CNC(=O)Cc2ccccc2)n1
GI50 (786-0): > 100 µM (inactive) | GI50 (A498): > 100 µM (inactive) | GI50 (A549): > 100 µM (inactive) | GI50 (ACHN): > 100 µM (inactive) | GI50 (CAKI-1): > 100 µM (inactive) | GI50 (CCRF-CEM): > 100 µM (inactive) | GI50 (COLO 205): > 100 µM (inactive) | GI50 (DLD-1): > 100 µM (inactive) | GI50 (DMS-114): > 100 µM (inactive) | GI50 (DMS-273): > 100 µM (inactive) | GI50 (EKVX): > 100 µM (inactive) | GI50 (HCC 2998): > 100 µM (inactive) | GI50 (HCT-15): > 100 µM | GI50 (HL-60): > 100 µM (inactive) | GI50 (HOP-62): > 100 µM (inactive) | GI50 (HOP-92): > 100 µM (inactive) | GI50 (HT-29): > 100 µM (inactive) | GI50 (IGROV-1): > 100 µM (inactive) | GI50 (K562): > 100 µM (inactive) | GI50 (KM-20L2): > 100 µM (inactive) | GI50 (KM12): > 100 µM (inactive) | GI50 (LOX IMVI): > 100 µM (inactive) | GI50 (LXFL 529): > 100 µM (inactive) | GI50 (M14): > 100 µM (inactive) | GI50 (M19-MEL): > 100 µM (inactive) | GI50 (MOLT-4): > 100 µM (inactive) | GI50 (Malme-3M): > 100 µM (inactive) | GI50 (NCI-H226): > 100 µM (inactive) | GI50 (NCI-H23): > 100 µM (inactive) | GI50 (NCI-H460): > 100 µM (inactive) | GI50 (NCI-H522): > 100 µM (inactive) | GI50 (OVCAR-3): > 100 µM (inactive) | GI50 (OVCAR-4): > 100 µM (inactive) | GI50 (OVCAR-5): > 100 µM (inactive) | GI50 (OVCAR-8): > 100 µM (inactive) | GI50 (RPMI-8226): > 100 µM (inactive) | GI50 (RXF 393): > 100 µM (inactive) | GI50 (SF-268): > 100 µM (inactive) | GI50 (SF-295): > 100 µM (inactive) | GI50 (SF-539): > 100 µM (inactive) | GI50 (SK-MEL-28): > 100 µM (inactive) | GI50 (SK-MEL-2): > 100 µM (inactive) | GI50 (SK-OV-3): > 100 µM (inactive) | GI50 (SN12C): > 100 µM (inactive) | GI50 (SNB-19): > 100 µM (inactive) | GI50 (SNB-75): > 100 µM (inactive) | GI50 (SNB-78): > 100 µM (inactive) | GI50 (SW-620): > 100 µM (inactive) | GI50 (TK-10): > 100 µM (inactive) | GI50 (UACC-257): > 100 µM (inactive) | GI50 (UACC-62): > 100 µM (inactive) | GI50 (UO-31): > 100 µM (inactive) | GI50 (XF498): > 100 µM (inactive)

N#C/C(c1nc2ccccc2[nH]1)=c1\s/c(=C/c2ccccc2)c(=O)n1-c1ccccc1
GI50 (786-0): > 100 µM (inactive) | GI50 (A498): 65.5 µM (inactive) | GI50 (A549): > 100 µM (inactive) | GI50 (ACHN): > 100 µM (inactive) | GI50 (CAKI-1): > 100 µM (inactive) | GI50 (CCRF-CEM): 98.9 µM (inactive) | GI50 (COLO 205): > 100 µM (inactive) | GI50 (DLD-1): > 100 µM (inactive) | GI50 (DMS-114): > 100 µM (inactive) | GI50 (DMS-273): > 100 µM (inactive) | GI50 (EKVX): > 100 µM (inactive) | GI50 (HCC 2998): > 100 µM (inactive) | GI50 (HCT-116): > 100 µM (inactive) | GI50 (HCT-15): > 100 µM | GI50 (HL-60): > 100 µM (inactive) | GI50 (HOP-62): > 100 µM (inactive) | GI50 (HOP-92): > 100 µM (inactive) | GI50 (IGROV-1): 2.9 µM (inactive) | GI50 (K562): > 100 µM (inactive) | GI50 (KM-20L2): > 100 µM (inactive) | GI50 (KM12): > 100 µM (inactive) | GI50 (LOX IMVI): > 100 µM (inactive) | GI50 (LXFL 529): 96.2 µM (inactive) | GI50 (M14): > 100 µM (inactive) | GI50 (M19-MEL): > 100 µM (inactive) | GI50 (MOLT-4): 9.89 µM (inactive) | GI50 (Malme-3M): > 100 µM (inactive) | GI50 (NCI-H226): > 100 µM (inactive) | GI50 (NCI-H23): > 100 µM (inactive) | GI50 (NCI-H460): 65.2 µM (inactive) | GI50 (NCI-H522): > 100 µM (inactive) | GI50 (OVCAR-3): > 100 µM (inactive) | GI50 (OVCAR-4): > 100 µM (inactive) | GI50 (OVCAR-5): > 100 µM (inactive) | GI50 (OVCAR-8): > 100 µM (inactive) | GI50 (RPMI-8226): > 100 µM (inactive) | GI50 (SF-268): > 100 µM (inactive) | GI50 (SF-539): > 100 µM (inactive) | GI50 (SK-MEL-28): > 100 µM (inactive) | GI50 (SK-MEL-2): > 100 µM (inactive) | GI50 (SK-MEL-5): 81.8 µM (inactive) | GI50 (SK-OV-3): > 100 µM (inactive) | GI50 (SN12C): > 100 µM (inactive) | GI50 (SNB-19): > 100 µM (inactive) | GI50 (SNB-75): > 100 µM (inactive) | GI50 (SR): > 100 µM (inactive) | GI50 (SW-620): > 100 µM (inactive) | GI50 (TK-10): > 100 µM (inactive) | GI50 (U-251): > 100 µM (inactive) | GI50 (UACC-257): > 100 µM (inactive) | GI50 (UACC-62): > 100 µM (inactive) | GI50 (UO-31): > 100 µM (inactive) | GI50 (XF498): 60.8 µM (inactive)
